Measured values taken from ChEMBL document CHEMBL1201862, “PubChem BioAssay data set” (2004).
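Values below derive from 48-hour exposures of cells grown in 96-well plates, with endpoints linearly interpolated between the two concentrations bracketing the appropriate inhibition level. At the GI50, growth is halved.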 The source made the active and inactive calls. Rule as the data show it: active = GI50 up to about 1.1 µM and inactive = higher.

Legend:
Assay in all cases: NCI tumour cell line growth inhibition, 48 h
HCT-116 = test system: HCT-116
LOX IMVI = test system: LOX IMVI
SK-MEL-2 = test system: SK-MEL-2
HCC 2998 = test system: HCC 2998
SNB-75 = test system: SNB-75
MCF7 = test system: MCF7
OVCAR-3 = test system: OVCAR-3
SF-295 = test system: SF-295
OVCAR-4 = test system: OVCAR-4
M14 = test system: M14
PC-3 = test system: PC-3
T47D = test system: T47D
ACHN = test system: ACHN
NCI-H460 = test system: NCI-H460
SW-620 = test system: SW-620
MDA-MB-435 = test system: MDA-MB-435
A549 = test system: A549
SR = test system: SR
Malme-3M = test system: Malme-3M
HCT-15 = test system: HCT-15
Hs-578T = test system: Hs-578T
HOP-62 = test system: HOP-62
HL-60 = test system: HL-60
UACC-62 = test system: UACC-62
TK-10 = test system: TK-10
IGROV-1 = test system: IGROV-1
CAKI-1 = test system: CAKI-1
COLO 205 = test system: COLO 205
CCRF-CEM = test system: CCRF-CEM
NCI-H226 = test system: NCI-H226
SNB-19 = test system: SNB-19
UACC-257 = test system: UACC-257
SK-OV-3 = test system: SK-OV-3
MDA-MB-231 = test system: MDA-MB-231
SK-MEL-5 = test system: SK-MEL-5
UO-31 = test system: UO-31
KM12 = test system: KM12
A498 = test system: A498
DU-145 = test system: DU-145
OVCAR-5 = test system: OVCAR-5
NCI-H522 = test system: NCI-H522
OVCAR-8 = test system: OVCAR-8
MDA-N = test system: MDA-N
U-251 = test system: U-251
SN12C = test system: SN12C
MOLT-4 = test system: MOLT-4
NCI/ADR-RES = test system: NCI/ADR-RES
K562 = test system: K562
NCI-H23 = test system: NCI-H23
BT-549 = test system: BT-549
SF-268 = test system: SF-268
SK-MEL-28 = test system: SK-MEL-28
EKVX = test system: EKVX
HT-29 = test system: HT-29
786-0 = test system: 786-0
RPMI-8226 = test system: RPMI-8226
SF-539 = test system: SF-539

COC(=O)c1ccccc1CC1Cc2ccc3c(c2C1=O)CCCC3 (stereo not given)
GI50 (HCT-116): 29.2 µM (inactive)
GI50 (LOX IMVI): 28.8 µM (inactive)
GI50 (SK-MEL-2): 24.7 µM (inactive)
GI50 (HCC 2998): 44.3 µM (inactive)
GI50 (SNB-75): 40.4 µM (inactive)
GI50 (MCF7): 37.4 µM (inactive)
GI50 (OVCAR-3): 51.4 µM (inactive)
GI50 (SF-295): 32 µM (inactive)
GI50 (OVCAR-4): 23.3 µM (inactive)
GI50 (M14): 49 µM (inactive)
GI50 (PC-3): 23.7 µM (inactive)
GI50 (T47D): 13.8 µM (inactive)
GI50 (ACHN): 48.1 µM (inactive)
GI50 (NCI-H460): 68.5 µM (inactive)
GI50 (SW-620): 32 µM (inactive)
GI50 (MDA-MB-435): 34.6 µM (inactive)
GI50 (A549): 34.3 µM (inactive)
GI50 (SR): 14 µM (inactive)
GI50 (Malme-3M): 28.1 µM (inactive)
GI50 (HCT-15): 25.4 µM
GI50 (Hs-578T): 60.7 µM (inactive)
GI50 (HOP-62): > 77.4 µM (inactive)
GI50 (HL-60): 12.9 µM (inactive)
GI50 (UACC-62): 57.1 µM (inactive)
GI50 (TK-10): 51.4 µM (inactive)
GI50 (IGROV-1): > 100 µM (inactive)
GI50 (CAKI-1): 24 µM (inactive)
GI50 (COLO 205): 34 µM (inactive)
GI50 (CCRF-CEM): 23.8 µM (inactive)
GI50 (NCI-H226): 60.1 µM (inactive)
GI50 (SNB-19): 87.7 µM (inactive)
GI50 (UACC-257): 29.5 µM (inactive)
GI50 (SK-OV-3): > 95.9 µM (inactive)
GI50 (MDA-MB-231): 29.7 µM (inactive)
GI50 (SK-MEL-5): 15.5 µM (inactive)
GI50 (UO-31): 52.8 µM (inactive)
GI50 (KM12): 46.2 µM (inactive)
GI50 (A498): 52.8 µM (inactive)
GI50 (DU-145): 48.4 µM (inactive)
GI50 (OVCAR-5): > 100 µM (inactive)
GI50 (NCI-H522): 22.6 µM (inactive)
GI50 (OVCAR-8): 43.3 µM (inactive)
GI50 (MDA-N): 35.8 µM (inactive)
GI50 (U-251): 50.6 µM (inactive)
GI50 (SN12C): 37.2 µM (inactive)
GI50 (MOLT-4): 10.4 µM (inactive)
GI50 (NCI/ADR-RES): 23.6 µM (inactive)
GI50 (K562): 17 µM (inactive)
GI50 (NCI-H23): 35.3 µM (inactive)
GI50 (BT-549): 49.1 µM (inactive)
GI50 (SF-268): 75.5 µM (inactive)
GI50 (SK-MEL-28): 64.9 µM (inactive)
GI50 (EKVX): 29.9 µM (inactive)
GI50 (HT-29): 20.4 µM (inactive)
GI50 (786-0): 35.2 µM (inactive)
GI50 (RPMI-8226): 19.2 µM (inactive)
GI50 (SF-539): 62.1 µM (inactive)

CN(C)CCNC(=O)c1cccc(C(=O)Nc2ccccc2)c1[N+](=O)[O-]
GI50 (HCT-116): > 100 µM (inactive)
GI50 (SK-MEL-2): > 100 µM (inactive)
GI50 (HCC 2998): > 100 µM (inactive)
GI50 (SNB-75): 34.8 µM (inactive)
GI50 (MCF7): > 100 µM (inactive)
GI50 (OVCAR-3): > 100 µM (inactive)
GI50 (SF-295): > 100 µM (inactive)
GI50 (M14): > 100 µM (inactive)
GI50 (PC-3): > 100 µM (inactive)
GI50 (T47D): > 100 µM (inactive)
GI50 (ACHN): > 100 µM (inactive)
GI50 (NCI-H460): > 100 µM (inactive)
GI50 (SW-620): > 100 µM (inactive)
GI50 (MDA-MB-435): > 100 µM (inactive)
GI50 (A549): > 100 µM (inactive)
GI50 (SR): > 100 µM (inactive)
GI50 (Malme-3M): 48.5 µM (inactive)
GI50 (HCT-15): > 100 µM
GI50 (Hs-578T): > 100 µM (inactive)
GI50 (HOP-62): > 100 µM (inactive)
GI50 (HL-60): > 100 µM (inactive)
GI50 (UACC-62): > 100 µM (inactive)
GI50 (TK-10): > 100 µM (inactive)
GI50 (IGROV-1): > 100 µM (inactive)
GI50 (CAKI-1): > 100 µM (inactive)
GI50 (COLO 205): 54.2 µM (inactive)
GI50 (CCRF-CEM): > 100 µM (inactive)
GI50 (NCI-H226): > 100 µM (inactive)
GI50 (SNB-19): > 100 µM (inactive)
GI50 (UACC-257): > 100 µM (inactive)
GI50 (SK-OV-3): > 100 µM (inactive)
GI50 (MDA-MB-231): > 100 µM (inactive)
GI50 (SK-MEL-5): > 100 µM (inactive)
GI50 (UO-31): > 100 µM (inactive)
GI50 (KM12): > 100 µM (inactive)
GI50 (A498): > 100 µM (inactive)
GI50 (DU-145): > 100 µM (inactive)
GI50 (OVCAR-5): > 100 µM (inactive)
GI50 (NCI-H522): > 100 µM (inactive)
GI50 (OVCAR-8): > 100 µM (inactive)
GI50 (MDA-N): > 100 µM (inactive)
GI50 (U-251): > 100 µM (inactive)
GI50 (SN12C): > 100 µM (inactive)
GI50 (MOLT-4): > 100 µM (inactive)
GI50 (NCI/ADR-RES): > 100 µM (inactive)
GI50 (K562): > 100 µM (inactive)
GI50 (NCI-H23): > 100 µM (inactive)
GI50 (BT-549): 34 µM (inactive)
GI50 (SF-268): > 100 µM (inactive)
GI50 (SK-MEL-28): > 100 µM (inactive)
GI50 (HT-29): 71.8 µM (inactive)
GI50 (786-0): > 100 µM (inactive)
GI50 (SF-539): > 100 µM (inactive)
